The text below walks through data of publication PMC6438538, “Targeting ferroptosis: A novel therapeutic strategy for the treatment of mitochondrial disease-related epilepsy” (PLoS ONE, 2019).

The structures appear in SMILES notation.

The experiment addresses T1, 15-lipoxygenase-1 (15-LO) (Homo sapiens, UniProt P16050).
T1 construct: gene ALOX15; 6xHis-tagged human 15-LO
T1 sequence (P16050 2-662): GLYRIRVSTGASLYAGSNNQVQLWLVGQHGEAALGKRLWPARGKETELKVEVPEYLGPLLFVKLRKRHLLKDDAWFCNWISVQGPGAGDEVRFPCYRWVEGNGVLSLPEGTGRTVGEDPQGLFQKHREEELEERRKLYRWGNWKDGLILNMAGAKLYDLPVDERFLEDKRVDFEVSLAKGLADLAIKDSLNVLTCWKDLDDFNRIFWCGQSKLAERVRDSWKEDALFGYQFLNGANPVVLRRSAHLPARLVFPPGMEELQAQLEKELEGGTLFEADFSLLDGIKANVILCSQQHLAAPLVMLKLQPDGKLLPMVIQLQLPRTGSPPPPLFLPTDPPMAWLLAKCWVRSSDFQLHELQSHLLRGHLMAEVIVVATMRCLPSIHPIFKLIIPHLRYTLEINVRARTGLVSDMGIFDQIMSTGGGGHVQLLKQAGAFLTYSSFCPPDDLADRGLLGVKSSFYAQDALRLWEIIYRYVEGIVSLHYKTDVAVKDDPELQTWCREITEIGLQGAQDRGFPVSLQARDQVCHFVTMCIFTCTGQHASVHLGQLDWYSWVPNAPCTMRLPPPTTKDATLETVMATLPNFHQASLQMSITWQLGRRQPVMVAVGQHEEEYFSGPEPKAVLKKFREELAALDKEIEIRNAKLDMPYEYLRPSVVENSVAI
In words: ferrous oxidation-xylenol orange (FOX) assay with purified human 15-LO and arachidonic acid. It is filed as biochemical.

For orientation: IC50 means the concentration needed to halve the response being measured. High values mean weaker potency in that assay, low ones greater potency in that assay. Take `CC(C)=CCC/C(C)=C/CC/C(C)=C/CC[C@@](C)(O)CCc1c(C)c(O)c(C)c(C)c1O` [EPI-743-HQ, EPI-743 hydroquinone]: the IC50 came to 4.4 µM.
